Reference: PMC10518257 (Nature Cancer, 2023)
Values joined by “and” are separate entries in the source; they are usually repeats but may differ in a detail not shown here. Equal entries are not always repeated. Where two headings read alike, the source gives them in different places.

How the values were obtained:
[1] = Animal weight of tumor-bearing mice; details: for Animal Weight (g), Mean: Ba/F3-KIF5B::RET tumor-bearing mice (Ext. Data Fig 8i); for Animal Weight: Pralsetinib 30 mg/kg BID, individual animals
Ba/F3-CCDC6::RET^S904F = assay: Growth inhibition assay in Ba/F3 cells (CellTiter-Glo, 72 h); type: cell-based
[2] = test system: Ba/F3 cells expressing KIF5B–RET^G810S; assay: as above; type: cell-based; details: Ba/3-KIF5B-RET-G810S; replicate Sets 1-3
[3] = test system: Ba/F3 KIF5B–RET^WT allograft tumors; assay: Subcutaneous allograft efficacy study; type: in vivo, BALB/c nude mice; details: Ba/F3-KIF5B::RET, Ext. Data Fig. 9b
LUAD-0002AS1 cells = assay: Growth inhibition (alamarBlue, 96 h); type: cell-based, human; details: for raw viability signal (Source Data Fig. 3b-c): LUAD-0002AS1, replicate sets
[4] = test system: LUAD-0002AS1 cells (KIF5B::RET); assay: Dose-response western blotting, EC50 for inhibition of protein phosphorylation; type: cell-based; details: Homo sapiens, LUAD-0002AS1, 2 h, densitometry

SMILES: CO[C@]1(C(=O)N[C@@H](C)c2ccc(-n3cc(F)cn3)nc2)CC[C@H](c2nc(C)cc(Nc3cc(C)[nH]n3)n2)CC1 [Pralsetinib]
- Animal Weight (g), Mean ([1]; 30 mg/kg BID, day 15): 27.4 g
- Animal Weight (g), Mean ([1]; 60 mg/kg BID, day 1): 25.8 g
- Animal Weight (g), Mean ([1]; 60 mg/kg BID, day 4): 25.8 g
- Animal Weight (g), Mean ([1]; 60 mg/kg BID, day 8): 25.6 g
- Animal Weight (g), Mean ([1]; 60 mg/kg BID, day 11): 26.0 g
- Animal Weight (g), Mean ([1]; 60 mg/kg BID, day 15): 26.0 g
- Animal Weight ([1]; LUAD-0077AS1 PDX, treatment day 0): 23 g (2×) and 26 g (2×) and 21 g (2×) and 24 g and 25 g (2×) and 22 g
- Animal Weight ([1]; LUAD-0077AS1 PDX, treatment day 4): 26 g (2×) and 23 g and 21 g (2×) and 24 g (2×) and 25 g (2×) and 22 g
- Animal Weight ([1]; LUAD-0077AS1 PDX, treatment day 7): 26 g (2×) and 23 g and 21 g and 22 g (2×) and 25 g (2×) and 27 g and 24 g
- Animal Weight ([1]; LUAD-0087AS2 PDX, treatment day 0): 28 g and 27 g (2×) and 23 g and 26 g
- Animal Weight ([1]; LUAD-0087AS2 PDX, treatment day 3): 28 g and 27 g and 26 g and 24 g (2×)
- Animal Weight ([1]; LUAD-0087AS2 PDX, treatment day 7): 28 g and 26 g (2×) and 24 g and 25 g
- Animal Weight ([1]; LUAD-0087AS2 PDX, treatment day 10): 28 g and 27 g and 26 g and 25 g (2×)
- Animal Weight ([1]; LUAD-0087AS2 PDX, treatment day 14): 29 g and 27 g and 26 g and 25 g (2×)
- Animal Weight ([1]; LUAD-0087AS2 PDX, treatment day 17): 29 g and 25 g (3×) and 26 g
- Animal Weight ([1]; LUAD-0087AS2 PDX, treatment day 21): 28 g and 24 g and 25 g (2×) and 26 g
- Animal Weight ([1]; LUAD-0087AS2 PDX, treatment day 24): 28 g and 25 g (3×) and 26 g
- Animal Weight ([1]; LUAD-0087AS2 PDX, treatment day 29): 28 g and 25 g (3×) and 26 g
- Animal Weight ([1]; LUAD-0087AS2 PDX, treatment day 32): 29 g and 25 g (2×) and 26 g (2×)
- Animal Weight ([1]; LUAD-0087AS2 PDX, treatment day 35): 29 g and 25 g (3×) and 26 g
- Animal Weight ([1]; LUAD-0087AS2 PDX, treatment day 38): 25 g (3×) and 24 g and 26 g
- Animal Weight ([1]; LUAD-0087AS2 PDX, treatment day 42): 28 g and 25 g (2×) and 26 g (2×)
- Animal Weight ([1]; LUAD-0087AS2 PDX, treatment day 45): 28 g and 25 g (2×) and 26 g (2×)
- GI50 (Ba/F3-CCDC6::RET^S904F; BaF3/CCDC6-RET, read-out: GI50 values, Ba/F3-CCDC6::RET S904F, individual sets (replicate experiments)): 6.22 nM
- GI50 (Ba/F3-CCDC6::RET^S904F; Mus musculus, BaF3, 72 h, read-out: GI50 value (Mean ± SD), Ba/F3-CCDC6::RET^S904F, CellTiter-Glo, 72 h): 6.02 ± 1.69 nM
- GI50 (Ba/F3-CCDC6::RET^S904F; read-out: GI50 values, Ba/F3-CCDC6::RET S904F, individual sets (replicate experiments)): 7.61 nM and 4.24 nM
- GI50 [2]: 26.2 nM and 86 nM and 39.5 nM
- Tumor Volume Mean ([3]; 3 mg/kg BID, Day 1): 221.52 mm3
- Tumor Volume Mean ([3]; 3 mg/kg BID, Day 4): 379.17 mm3
- Tumor Volume Mean ([3]; 3 mg/kg BID, Day 8): 482.68 mm3
- Tumor Volume Mean ([3]; 3 mg/kg BID, Day 11): 745.24 mm3
- Tumor Volume Mean ([3]; 3 mg/kg BID, Day 15): 1198.84 mm3
- Tumor Volume Mean ([3]; 10 mg/kg BID, Day 1): 212.85 mm3
- Tumor Volume Mean ([3]; 10 mg/kg BID, Day 4): 215.66 mm3
- Tumor Volume Mean ([3]; 10 mg/kg BID, Day 8): 297.15 mm3
- Tumor Volume Mean ([3]; 10 mg/kg BID, Day 11): 403.26 mm3
- Tumor Volume Mean ([3]; 10 mg/kg BID, Day 15): 433.99 mm3
- Tumor Volume Mean ([3]; 30 mg/kg BID, Day 1): 218.49 mm3
- Tumor Volume Mean ([3]; 30 mg/kg BID, Day 4): 127.84 mm3
- Tumor Volume Mean ([3]; 30 mg/kg BID, Day 8): 80.68 mm3
- Tumor Volume Mean ([3]; 30 mg/kg BID, Day 11): 53.52 mm3
- Tumor Volume Mean ([3]; 30 mg/kg BID, Day 15): 67.12 mm3
- Tumor Volume Mean ([3]; 60 mg/kg BID, Day 1): 225.80 mm3
- Tumor Volume Mean ([3]; 60 mg/kg BID, Day 4): 95.08 mm3
- Tumor Volume Mean ([3]; 60 mg/kg BID, Day 8): 69.89 mm3
- Tumor Volume Mean ([3]; 60 mg/kg BID, Day 11): 52.39 mm3
- Tumor Volume Mean ([3]; 60 mg/kg BID, Day 15): 58.70 mm3
- IC50 (LUAD-0002AS1 cells; Homo sapiens, 96 h, read-out: IC50 for Inhibition of Growth (95% CI)): 4 nM
- raw viability signal (Source Data Fig. 3b-c) (LUAD-0002AS1 cells; 0.01 nM): 15231.7 and 11282.9 and 12487.7
- raw viability signal (Source Data Fig. 3b-c) (LUAD-0002AS1 cells; 0.1 nM): 13433.7 and 11365.6 and 12797.1
- raw viability signal (Source Data Fig. 3b-c) (LUAD-0002AS1 cells; 1 nM): 14274.6 and 7102.45 and 10515
- raw viability signal (Source Data Fig. 3b-c) (LUAD-0002AS1 cells; 10 nM): 5412.04 and 2878.75 and 4059.15
- raw viability signal (Source Data Fig. 3b-c) (LUAD-0002AS1 cells; 100 nM): 2211.78 and 2052.44 and 2966.29
- raw viability signal (Source Data Fig. 3b-c) (LUAD-0002AS1 cells; 1000 nM): 1138.02 and 1548.13 and 2436.62
- raw viability signal (Source Data Fig. 3b-c) (LUAD-0002AS1 cells; 10000 nM): 935.955 and 1429.45 and 2173.09
- EC50 ([4]; read-out: EC50 for Inhibition of Protein Phosphorylation (95% CI), AKT S473): 0.4 nM
- EC50 ([4]; read-out: EC50 for Inhibition of Protein Phosphorylation (95% CI), ERK1/2 T202/Y204): 3.5 nM
- EC50 ([4]; read-out: EC50 for Inhibition of Protein Phosphorylation (95% CI), MEK1/2 S217/S221): 0.9 nM
- EC50 ([4]; read-out: EC50 for Inhibition of Protein Phosphorylation (95% CI), P70 RSK T421/S424): 1.7 nM
- EC50 ([4]; read-out: EC50 for Inhibition of Protein Phosphorylation (95% CI), RET Y905): 1.1 nM
- EC50 ([4]; read-out: EC50 for Inhibition of Protein Phosphorylation (95% CI), S6RP S235/S236): 1.1 nM
